System: cardiac gene expression
Experiment: Microarray analysis of cardiac gene expression (GeneChip Mouse Genome 430 2.0)
Type: in vivo, mice
Description: Microarray Sample Preparation and Analysis. Animal hearts were rapidly removed, and the atria and right ventricles were cut and immediately plunged into TRIzol Reagent (Life Technologies). Total RNA was isolated following the manufacturer's instructions, purified by phenol-chloroform extraction and then ethanol precipitation, and 20 μg further processed for microarray analysis. Briefly, cDNA synthesis, in vitro transcription, and labeling and fragmentation to produce the oligonucleotide probes were performed as instructed by the GeneChip manufacturer (Affymetrix). The probes were first hybridized to a test array (Affymetrix) and then to the GeneChip Mouse Genome 430 2.0 Array, using the GeneChip Hybridization Oven 640. The chips were washed in a GeneChip Fluidics Station 450 (Affymetrix), and the results were visualized with a GeneChip G7 scanner (Affymetrix). RMA normalization, pairwise comparisons, Student's t test and Benjamini and Hochberg correction were subsequently performed using GeneSifter (VizX Labs, Seattle, Wash.) and Spotfire DecisionSite 8.3 (Spotfire, Inc., Somerville, Mass.).
Effects on Gene Expression Profile. […] One mouse heart was used for each array, and was performed in triplicate, generating a total of 12 arrays. GeneSifter was used to perform RMA normalization, pairwise comparisons of averaged signal intensity values, and Student's t-test with Benjamini and Hochberg correction, and Spotfire was used to perform pairwise comparisons. […] Additionally, genes that were altered between any two N or cardiac hypertrophy samples were removed, as these alterations most likely represented normal variations between mice.

[1] = CH vs drug-treated isoproterenol mice
[2] = heart, drug + isoproterenol vs isoproterenol only
[3] = mouse heart, vs isoproterenol only (CH), CH vs normal 2.1
[4] = mouse heart, vs isoproterenol only (CH), CH vs normal 2.2
[5] = mouse heart, vs isoproterenol only (CH), CH vs normal 2.6
[6] = mouse heart, vs isoproterenol only (CH), CH vs normal 2.7
[7] = mouse heart, vs isoproterenol only (CH), CH vs normal 2.9
[8] = mouse heart, vs isoproterenol only (CH), CH vs normal 3.2
[9] = mouse heart, vs isoproterenol only (CH), CH vs normal 3.3
[10] = mouse heart, vs isoproterenol only (CH), CH vs normal 3.7
[11] = mouse heart, vs isoproterenol only (CH), CH vs normal 4.9
[12] = mouse heart, vs isoproterenol only (CH), CH vs normal 7.4
[13] = mouse heart, vs isoproterenol only (CH), CH vs normal −1.7
[14] = mouse heart, vs isoproterenol only (CH), CH vs normal −1.8
[15] = mouse heart, vs isoproterenol only (CH), CH vs normal −1.9
[16] = mouse heart, vs isoproterenol only (CH), CH vs normal −2.0
[17] = mouse heart, vs isoproterenol only (CH), CH vs normal −2.1
[18] = mouse heart, vs isoproterenol only (CH), CH vs normal −2.4
[19] = mouse heart, vs isoproterenol only (CH), CH vs normal −2.5
[20] = mouse heart, vs isoproterenol only (CH), CH vs normal −2.6
[21] = mouse heart, vs isoproterenol only (CH), CH vs normal −2.7
[22] = mouse heart, vs isoproterenol only (CH), CH vs normal −2.9
[23] = mouse heart, vs isoproterenol only (CH), CH vs normal −3.0
[24] = mouse heart, vs isoproterenol only (CH), CH vs normal −3.2
[25] = mouse heart, vs isoproterenol only (CH), CH vs normal −3.3

NC(=O)N1c2ccccc2C=Cc2ccccc21 [carbamazepine]
Number of Altered Genes, Average FC (1.5-fold) [1]: 709
Number of Altered Genes, Average FC (2-fold) [1]: 1
Number of Altered Genes, Minus disease variability [1]: 1
Number of Altered Genes, Minus natural variability [1]: 1
Number of Altered Genes, Reproducible [1]: 1
Number of Altered Genes, Student's t test [1]: 306
Number of Altered Genes, Correction (CH vs drug-treated isoproterenol mice, Benjamini and Hochberg): 1
Number of Altered Genes, Disease-specific (CH vs drug-treated isoproterenol mice, of 779 genes altered N vs CH, altered in the reverse direction): 1
Cytokine inducible SH2-containing protein 3 (Socs3), Microarray FC [2]: −2.4 FC
GATA binding protein 4 (Gata4), Microarray FC [2]: 2.1 FC
Lipocalin 2 (Lcn2), Microarray FC [2]: −1.6 FC
NADPH oxidase 4 (Nox4), Microarray FC [2]: −1.9 FC
Oncostatin receptor (Osmr), Microarray FC [2]: −1.7 FC
SET and MYND domain containing 1 (Smyd1), Microarray FC [2]: 1.7 FC
Serine protease inhibitor 2-2 (Spi2-2) (Serpin3n), Microarray FC [2]: −2.3 FC
FC Procollagen, type IV, alpha 1 (Col4a1), AW536690 (mouse heart, vs isoproterenol only (CH), CH vs normal 1.6): −1.8 fold
FC Fatty acid binding protein 4, adipocyte (Fabp4), BC002148 (mouse heart, vs isoproterenol only (CH), CH vs normal 1.8): −1.6 fold
FC Adenosine deaminase (Ada), NM_007398 [3]: −2.2 fold
FC EST, AV032095 [3]: −1.6 fold
FC EST, BE630073 [3]: −1.6 fold
FC Amine oxidase, copper containing 3 (Aoc3), NM_009675 [4]: −1.8 fold
FC CD14 antigen (CD14), NM_009841 [4]: −1.6 fold
FC Flavin containing monooxygenase 1 (Fmo1), BC011229 [4]: −1.6 fold
FC cDNA, BG075321 [4]: −1.6 fold
FC A disintegrin-like and metallopeptidase (reprolysin type) with thrombospondin (ADAMTS)-like 2 (Adamtsl2), AK020831 (mouse heart, vs isoproterenol only (CH), CH vs normal 2.3): −1.6 fold
FC Purine-nucleoside phosphorylase (Pnp), BC003788 (mouse heart, vs isoproterenol only (CH), CH vs normal 2.4): −1.7 fold
FC ESTs, AI447357 (mouse heart, vs isoproterenol only (CH), CH vs normal 2.5): −1.9 fold
FC Dipeptidase 1 (Dpep1), NM_007876 [5]: −1.6 fold
FC Fc fragment of IgG, low affinity IIIa, receptor (Fcrl3), BC027310 [5]: −1.6 fold
FC cDNA, AW552579 [5]: −1.7 fold
FC G7e protein, NM_033075 [6]: −1.6 fold
FC Mitogen activated protein kinase kinase kinase 8 (Map3k8), NM_007746 [6]: −1.7 fold
FC cDNA, BC019553 [6]: −2.2 fold
FC Decorin (Dcn), AV321547 [7]: −1.6 fold
FC Glycoprotein (transmembrane) nmb (Gpnmb), NM_053110 [7]: −1.5 fold
FC C-type lectin domain family 1, member a (Clec1a), BB035924 (mouse heart, vs isoproterenol only (CH), CH vs normal 3.1): −1.6 fold
FC CUB and zona pellucida-like domains 1 (Cuzd1), NM_008411 [8]: −1.5 fold
FC G7e protein, BC027314 [8]: −2.2 fold
FC Serine (or cysteine) peptidase inhibitor, clade A, member 3G (Serpina3g), BC002065 [8]: −1.7 fold
FC cDNA, BG297038 [8]: −2.9 fold
FC Pyruvate dehydrogenase kinase 4 (Pdk4), NM_013743 [9]: 1.7 fold
FC cDNA, AK012898 [9]: −2.0 fold
FC TRAF2 and K interacting kinase (Tnik), AI117633 (mouse heart, vs isoproterenol only (CH), CH vs normal 3.4): −1.7 fold
FC Interleukin-1 receptor-associated kinase 3 (Irak3), AV228493 (mouse heart, vs isoproterenol only (CH), CH vs normal 3.5): −1.6 fold
FC Mcf.2 transforming sequee-like (Mcf21), AV293368 [10]: −1.5 fold
FC cDNA, BE956710 [10]: −1.7 fold
FC Lipopolysaccharide binding protein (Lbp), NM_008489 (mouse heart, vs isoproterenol only (CH), CH vs normal 3.8): −1.8 fold
FC Nuclear factor of kappa light polypeptide gene enhaer in B-cells inhibitor, zeta (Nfkbiz), NM_030612 (mouse heart, vs isoproterenol only (CH), CH vs normal 3.9): −1.6 fold
FC Colony stimulating factor 2 receptor, beta 2, low-affinity (granulocyte-macrophage) (Csf2rb2), NM_007781 (mouse heart, vs isoproterenol only (CH), CH vs normal 4.1): −1.8 fold
FC NADPH oxidase 4 (Nox4), BC021378 (mouse heart, vs isoproterenol only (CH), CH vs normal 4.3): −1.9 fold
FC Calcium-sensitive chloride conductae protein-1 (Clca1), AF047838 (mouse heart, vs isoproterenol only (CH), CH vs normal 4.4): −1.8 fold
FC cDNA, AK008807 (mouse heart, vs isoproterenol only (CH), CH vs normal 4.5): −1.7 fold
FC Serum amyloid A 3 (Saa3), NM_011315 (mouse heart, vs isoproterenol only (CH), CH vs normal 4.7): −2.0 fold
FC Caer related gene-liver 1 (CRG-L1), AF282864 [11]: −1.5 fold
FC Calcium/calmodulin-dependent protein kinase II, beta (Camk2b), BG862223 [11]: −2.8 fold
FC Oostatin receptor (Osmr), NM_011019 (mouse heart, vs isoproterenol only (CH), CH vs normal 5.1): −1.7 fold
FC Cytokine inducible SH2-containing protein 3 (Socs3), BB241535 (mouse heart, vs isoproterenol only (CH), CH vs normal 6.0): −2.3 fold
FC Membrane-spanning 4-domains, subfamily A, member 6d (Ms4a6d), NM_026835 (mouse heart, vs isoproterenol only (CH), CH vs normal 6.4): −1.6 fold
FC Proteoglycan 4 (megakaryocyte stimulating factor, articular superficial zone protein) (Prg4), NM_021400 (mouse heart, vs isoproterenol only (CH), CH vs normal 6.8): −1.5 fold
FC CCAATenhaer binding protein (CEBP), delta (Cebpd), BB831146 [12]: −1.6 fold
FC Ca(2+)-sensitive chloride channel 2 (Clca2), AF108501 [12]: −2.0 fold
FC Lysyl oxidase (Lox), M65143 [12]: −2.1 fold
FC Cytokine inducible SH2-containing protein 3 (Socs3), BB831725 (mouse heart, vs isoproterenol only (CH), CH vs normal 8.2): −2.4 fold
FC C-type (calcium dependent, carbohydrate recognition domain) lectin, superfamily member 8 (Clecsf8), NM_010819 (mouse heart, vs isoproterenol only (CH), CH vs normal 10.8): −1.7 fold
FC Lysyl oxidase (Lox), NM_010728 (mouse heart, vs isoproterenol only (CH), CH vs normal 11.1): −2.4 fold
FC FK506 binding protein 5 (51 kDa) (Fkbp5), BC015260 (mouse heart, vs isoproterenol only (CH), CH vs normal 16.3): −1.6 fold
FC Lipocalin 2 (Lcn2), X14607 (mouse heart, vs isoproterenol only (CH), CH vs normal 27.7): −1.6 fold
FC Serine protease inhibitor 2-2 (Spi2-2) (Serpin3n), NM_009252 (mouse heart, vs isoproterenol only (CH), CH vs normal 40.5): −2.3 fold
FC Metallophosphoesterase domain containing 2 (Mpped2), AK012553 (mouse heart, vs isoproterenol only (CH), CH vs normal −1.5): 1.6 fold
FC cDNA, BM229539 (mouse heart, vs isoproterenol only (CH), CH vs normal −1.6): 1.6 fold
FC Cytoplasmic polyadenylation element binding protein 3 (Cpeb3), BB281000 [13]: 1.8 fold
FC EphrinB3 (Efnb3), BQ175608 [13]: 1.5 fold
FC Nuclear factor IB (Nfib), BB092799 [13]: 2.0 fold
FC Preimplantation protein 4 (Prei4), BB550273 [13]: 1.7 fold
FC Triple futional domain (PTPRF interacting) (Trio), BB794936 [13]: 1.7 fold
FC EST, BB126796 [14]: 2.2 fold
FC EST, BB451134 [14]: 2.2 fold
FC Metastasis suppressor 1 (Mtss1), BB326749 [14]: 1.6 fold
FC Tetratricopeptide repeat domain (Ttc3), BB833716 [14]: 2.0 fold
FC EST, BM941198 [15]: 1.7 fold
FC Jumonji, AT rich interactive domain 1A (Rbp2 like) (Jarid1a), BB376407 [15]: 1.8 fold
FC Guanine nucleotide binding protein, alpha 12 (Gna12), NM_010302 [16]: 1.6 fold
FC Zi finger and BTB domain containing 20 (Zbtb20), BB175650 [16]: 1.9 fold
FC C1q and tumor necrosis factor related protein 4 (C1qtnf4), NM_026161 [17]: 1.5 fold
FC Cold inducible RNA binding protein (Cirbp), NM_007705 [17]: 2.1 fold
FC Adrenergic receptor, alpha 1b (Adra1b), NM_007416 (mouse heart, vs isoproterenol only (CH), CH vs normal −2.3): 1.6 fold
FC DNA segment, Chr 9, ERATO Doi 256, expressed, BG066667 [18]: 1.8 fold
FC Insulin degrading enzyme (Ide), AK014703 [18]: 1.9 fold
FC Sno, strawbeny notch homolog 1 (Sno1), BE947961 [18]: 1.6 fold
FC B-cell translocation gene 2, anti-proliferative (Btg2), BG965405 [19]: 1.8 fold
FC cDNA, BC026793 [19]: 1.8 fold
FC Desmoglein 2 (Dsg2), AB072269 [20]: 2.5 fold
FC Heat shock protein, 84 kDa 1 (Hsp90ab1), BI154147 [20]: 3.7 fold
FC Myocyte enhaer factor 2C (Mef2c), AI595932 [20]: 1.9 fold
FC Restin-like 2 (Rsnl2), AK018895 [20]: 1.9 fold
FC Jumonji domain containing 3 (Jmjd3), AW763746 [21]: 1.9 fold
FC cDNA (similar to integrin beta 1 binding protein 3), AK009897 [21]: 2.7 fold
FC Karyopherin (importin) beta 1 (Kpnb1), AW544889 (mouse heart, vs isoproterenol only (CH), CH vs normal −2.8): 2.3 fold
FC PPAR gamma coactivator-1beta protein (Ppargc1b), NM_133249 [22]: 2.0 fold
FC SET and MYND domain containing 1 (Smyd1), NM_009762 [22]: 1.7 fold
FC Dual specificity phosphatase 8 (Dusp8), NM_008748 [23]: 1.8 fold
FC GATA binding protein 4 (Gata4), NM_008092 [23]: 2.1 fold
FC Actin, beta, cytoplasmic (Actb), AW537707 [24]: 1.7 fold
FC Methionine sulfoxide reductase B3 (Msrb3), BB277041 [24]: 1.7 fold
FC Thymoma viral proto-oogene 1 (Akt1), M94335 [25]: 1.6 fold
FC cDNA, BB283973 [25]: 1.9 fold
FC cDNA, BB534971 (mouse heart, vs isoproterenol only (CH), CH vs normal −3.5): 1.6 fold
FC cDNA, BB026304 (mouse heart, vs isoproterenol only (CH), CH vs normal −3.8): 2.5 fold
FC Kinesin-like protein (Kif1b), D17577 (mouse heart, vs isoproterenol only (CH), CH vs normal −3.9): 1.6 fold
FC Kv channel-interacting protein 2a (Kcnip2), AF439339 (mouse heart, vs isoproterenol only (CH), CH vs normal −4.4): 2.6 fold
FC Potassium voltage-gated channel, Isk-related subfamily, member 1 (Kcne1), NM_008424 (mouse heart, vs isoproterenol only (CH), CH vs normal −4.6): 1.5 fold
FC Tumor rejection antigen gp96 (Tra1); heat shock protein 90 kDa beta (Grp94), member 1 (Hsp90b1), BE995678 (mouse heart, vs isoproterenol only (CH), CH vs normal −9.4): 2.7 fold
FC Cadherin 13 (Cdh13), AK016527 (mouse heart, vs isoproterenol only (CH), CH vs normal −10.0): 5.9 fold
number of the 472 cardiac hypertrophy-specific Combo-altered genes also altered by the drug alone (statistical parameters lifted (average fold-changes irrespective of statistical measures)): 98
G7e protein gene, fold-change (the only gene significantly altered): −2.2 fold
